Laboratory results taken from paper PMC4694998, “Suppression of β-catenin/TCF transcriptional activity and colon tumor cell growth by dual inhibition of PDE5 and 10” (Oncotarget, 2015).
pIC50: −log10 of the molar value.

Key:
HT29 colon tumor cells = experiment: Growth assay (Cell Titer Glo), HT29; format: cell-based; conditions: Homo sapiens, HT-29; 72 hours of treatment; read-out: HT29 growth IC50
Protocol: Human colon tumor cell lines, HCT116, HT29, SW480 and Caco-2 were obtained from the American Type Culture Collection (ATCC) and grown under standard cell culture conditions in RPMI 1640 medium containing 5% serum at 37°C in a humidified atmosphere with 5% CO2. The human colonocyte line, NCM460, that is derived from normal human colon mucosa was obtained from INCELL and grown in INCELL’s enriched M3:10 medium with 10% serum as recommended by supplier. All cell lines were expanded upon delivery, and numerous aliquots of low passage cells were preserved in liquid N2. Cells were passaged no longer than 2 months. Tumor cell lines obtained from ATCC were characterized by STR profiling as performed by ATCC. The NCM460 line was characterized by INCELL as described previously (e.g. tumorigenicity testing). No additional re-authentication of the cell lines was performed except for experimental reasons (e.g. confirmation of cell doubling time, morphology, sensitivity to SS, PDE5/10 expression levels, etc).
Cells were plated in 96-well microtiter plates at a density of 5,000 cells per well. For drug treatment, cells were treated with compound or vehicle, and incubated at 37°C for 72 hours. All growth assays were performed in 5% serum unless otherwise noted. Deionized water was used as vehicle control for papaverine. For siRNA assays, cells were transfected with siRNA under the same condition described above. The effect of treatment on cell growth was measured using the Cell Titer Glo Assay as specified by the manufacturer (Promega).
(§1) The IC50 values were determined as described previously. All experiments were repeated a minimum of three times to determine the reproducibility of the results. All error bars represent standard error of the mean (SEM). Statistical analysis of differences between samples was performed using the Student’s t-test. A P value of < 0.05 was considered statistically significant.

[1] = test system: PKG activity (phospho-Ser239 VASP) in HCT116 colon tumor cells; experiment: Western blotting of VASP phosphorylation, HCT116; format: cell-based, human
Protocol: Western blotting was performed as described previously. Cells were treated with ADT-094 or vehicle for 8 hours before cell lysates were collected.

purified ovine COX-2 = target: T1, purified ovine COX-2 (Ovis aries, UniProt P79208); experiment: COX-2 colorimetric assay; format: biochemical
T1 construct: purchased Cayman
T1 sequence (P79208 17-603): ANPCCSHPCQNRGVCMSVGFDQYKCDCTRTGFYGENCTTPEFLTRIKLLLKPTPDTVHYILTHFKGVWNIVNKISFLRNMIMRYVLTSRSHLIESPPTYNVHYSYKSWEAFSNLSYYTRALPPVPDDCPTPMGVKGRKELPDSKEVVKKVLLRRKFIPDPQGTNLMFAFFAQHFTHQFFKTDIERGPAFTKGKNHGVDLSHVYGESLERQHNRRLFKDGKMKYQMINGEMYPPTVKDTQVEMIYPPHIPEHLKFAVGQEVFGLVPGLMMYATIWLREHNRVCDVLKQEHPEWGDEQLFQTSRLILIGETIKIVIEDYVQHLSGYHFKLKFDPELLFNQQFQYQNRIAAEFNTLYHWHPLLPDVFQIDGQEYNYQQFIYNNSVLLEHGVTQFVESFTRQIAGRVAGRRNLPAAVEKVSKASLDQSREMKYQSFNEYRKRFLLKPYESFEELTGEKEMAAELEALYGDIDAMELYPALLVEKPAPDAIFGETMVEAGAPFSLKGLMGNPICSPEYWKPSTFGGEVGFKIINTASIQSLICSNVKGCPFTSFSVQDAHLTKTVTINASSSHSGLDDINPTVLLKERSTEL
Protocol: (§2) COX-1 and COX-2 activities were measured using purified ovine COX-1 and COX-2 with colorimetric assay kits obtained from Cayman as previously reported. The activities of COX-1 and COX-2 were measured after the addition of arachidonic acid and incubation at 25°C for 5 min by absorbance at 590 nm as specified by the manufacturer.
as §1

purified ovine COX-1 = target: T2, purified ovine COX-1 (Ovis aries, UniProt P05979); experiment: COX-1 colorimetric assay; format: biochemical
T2 construct: purchased Cayman
T2 sequence (P05979 25-600): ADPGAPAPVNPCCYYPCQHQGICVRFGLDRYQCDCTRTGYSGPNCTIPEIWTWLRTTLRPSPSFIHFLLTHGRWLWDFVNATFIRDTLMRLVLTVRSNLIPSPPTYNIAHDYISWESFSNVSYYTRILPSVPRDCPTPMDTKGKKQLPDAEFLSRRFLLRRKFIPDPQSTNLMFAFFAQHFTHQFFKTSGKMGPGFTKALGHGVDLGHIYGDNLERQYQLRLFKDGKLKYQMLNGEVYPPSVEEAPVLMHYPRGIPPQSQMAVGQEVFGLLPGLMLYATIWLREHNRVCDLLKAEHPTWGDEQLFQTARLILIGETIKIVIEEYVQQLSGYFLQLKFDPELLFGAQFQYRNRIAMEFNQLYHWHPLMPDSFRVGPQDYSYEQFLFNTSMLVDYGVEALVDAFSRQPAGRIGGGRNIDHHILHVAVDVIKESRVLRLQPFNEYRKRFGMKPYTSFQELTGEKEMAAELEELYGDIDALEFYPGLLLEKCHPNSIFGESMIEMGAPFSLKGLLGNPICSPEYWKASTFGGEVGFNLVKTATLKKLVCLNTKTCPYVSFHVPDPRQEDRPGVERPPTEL
Protocol: as §2, §1

HCT116 colon tumor cells [2] = experiment: Cell proliferation assay (EdU incorporation, flow cytometry); format: cell-based, human; conditions: 24 hours treatment with 0.1 μmol/L
Protocol: The antiproliferative activity of ADT-094 was determined by measuring EdU (5-ethynyl-2′-deoxyuridine) incorporation during DNA synthesis. Cells were plated at a density of 1.5 × 10^6 cells per 10 cm tissue culture dish and incubated overnight at 37°C. After growing the cells in serum-free media overnight, the cells were treated with ADT-094 or vehicle in medium supplemented with 10% serum for 6 hours. A final concentration of 10 μmol/L EdU was added to each dish and incubated for an additional 18 hours. Cells were harvested and analyzed using the Click-iT EdU Alexa Fluor 488 Proliferation Assay (Invitrogen) according to the manufacturer’s specifications. The percentage of proliferating cells was quantified using a BD FACSCalibur flow cytometer.

HCT116 colon tumor cells [3] = experiment: Apoptosis assay (Caspase 3/7 Glo), HCT116; format: cell-based, human; conditions: caspase-3 and -7, 6 hours of treatment
Protocol: Cells were plated in 96-well microtiter plates at a density of 10,000 cells per well, and allowed to attach overnight. Cells were treated with ADT-094 or vehicle, and incubated at 37°C for 6 hours. All apoptosis assays were done in 5% serum using either tumor cells or normal colonocytes. The induction of apoptosis caused by treatment was determined using Caspase 3/7 Glo Assay (Promega), which is a luminescent assay that measures substrate cleavage by caspases-3 and -7. The assay was done according to manufacturer’s specifications.

## COc1ccc2c(c1)C(CC(=O)NCc1ccco1)=C(C)/C2=C/c1cc(OC)c(OC)c(OC)c1 [ADT-094, (Z)-N-(furan-2-ylmethyl)-2-(5-methoxy-2-methyl-1-(3,4,5-trimethoxybenzylidene)-1H-inden-3-yl) acetamide]
HT29 colon tumor cells
  pIC50: 7.00
[1]
  phospho-Ser239 VASP levels (PKG activity): increased
Purified ovine COX-2; Figure 3A
  pIC50: 3.84
Purified ovine COX-2; in words
  COX-2 inhibitory activity: essentially lacks
Purified ovine COX-1; Figure 3A
  pIC50: 4.09
Purified ovine COX-1; in words
  COX-1 inhibitory activity: essentially lacks
HCT116 colon tumor cells [2]
  proliferation (EdU incorporation): inhibited the proliferation
HCT116 colon tumor cells [3]
  caspase activity (apoptosis): increased caspase activity
